According to US10723723B2, “Substituted bicycle heterocyclic derivatives useful as ROMK channel inhibitors” (BRISTOL-MYERS SQUIBB COMPANY, priority 2016, dated 2020):

Each compound was assayed against hROMK (human Kir1.1) (Homo sapiens (Human), UniProt P48048) (assay: Thallium Flux Assay (FluxOR, CHO T-Rex hROMK stable cell line)). Conditions: CHO T-Rex hROMK cells, 10-point concentration response curve; read-out: Human ROMK TH Flux IC50.
hROMK (human Kir1.1), sequence (P48048 whole entry): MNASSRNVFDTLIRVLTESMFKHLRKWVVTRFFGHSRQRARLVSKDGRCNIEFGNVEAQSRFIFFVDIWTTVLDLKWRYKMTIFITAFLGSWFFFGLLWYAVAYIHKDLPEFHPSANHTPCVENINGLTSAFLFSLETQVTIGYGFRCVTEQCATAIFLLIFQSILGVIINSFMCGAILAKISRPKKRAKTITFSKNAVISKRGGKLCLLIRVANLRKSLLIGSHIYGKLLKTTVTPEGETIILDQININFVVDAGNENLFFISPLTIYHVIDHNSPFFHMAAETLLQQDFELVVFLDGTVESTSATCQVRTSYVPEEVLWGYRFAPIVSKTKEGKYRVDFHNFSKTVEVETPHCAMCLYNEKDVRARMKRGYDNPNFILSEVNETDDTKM
Type: cell-based
With `CC(=O)N(Cc1ccc(-c2ccc(C#N)c(F)c2)cc1)CC(O)c1ccc2c(c1C)COC2=O` (single isomer, unassigned) [Example 34-I, N-((4′-cyano-3′-fluoro-[1,1′-biphenyl]-4-yl)methyl)-N-(2-hydroxy-2-(4-methyl-1-oxo-1,3-dihydroisobenzofuran-5-yl)ethyl)acetamide] the IC50 was 780 nM. `Cc1cc(-n2ncc(C(C)NC[C@H](O)c3ccc4c(c3C)COC4=O)n2)ncc1C#N` (single isomer, unassigned) [Example 59] was tested, and the IC50 was 540 nM. `Cc1cn(-c2ncc(CNC[C@H](O)c3ccc4c(c3C)COC4=O)cc2F)cn1` (single isomer, unassigned) [Example 83] gave an IC50 of 46 nM. `Cc1c([C@@H](O)CN(C)Cc2ccc(-c3ccc4oc(=O)n(C)c4c3)cn2)ccc2c1COC2=O` (single isomer, unassigned) [Example 84] showed an IC50 of 82 nM. Compound `Cc1cc(-n2cc(CNCC(C)(O)c3ccc4c(c3C)COC4=O)cn2)ncc1C#N` (single isomer, unassigned) [Example 170-I, 6-(4-(((2-hydroxy-2-(4-methyl-1-oxo-1,3-dihydroisobenzofuran-5-yl)propyl)amino)methyl)-1H-pyrazol-1-yl)-4-methylnicotinonitrile] has an IC50 of 160 nM. `Cc1cc(-n2cc(CNCC(O)c3ccc4c(c3C)C(C)OC4=O)cn2)ncc1C#N` (single isomer, unassigned) [Example 172-I, 6-(4-(((2-(3,4-dimethyl-1-oxo-1,3-dihydroisobenzofuran-5-yl)-2-hydroxyethyl)amino)meth-yl)-1H-pyrazol-1-yl)-4-methylnicotinonitrile] gave an IC50 of 850 nM. Compound `Cc1cc(-n2cc(CNCC(O)c3ccc4c(c3C)C(C)OC4=O)cn2)ncc1C#N` (single isomer, unassigned) [Example 172-II, 6-(4-(((2-(3,4-dimethyl-1-oxo-1,3-dihydroisobenzofuran-5-yl)-2-hydroxyethyl)amino)meth-yl)-1H-pyrazol-1-yl)-4-methylnicotinonitrile] has an IC50 of 1800 nM. Work on `Cc1c(C(CO)N(C)Cc2cnc(-n3ncc4c(C#N)cccc43)nc2)ccc2c1COC2=O` (centres unmarked) [Example 2-I] yielded an IC50 of 1900 nM. With `Cc1c(C(O)CN(C)Cc2cnc(-c3ccc4oc(=O)n(C)c4c3)nc2)ccc2c1COC2=O` (centres unmarked) [Example 9-I] the IC50 was 290 nM. With `Cc1c(C(O)CN(Cc2ccc(-c3ccc(C#N)c(F)c3)cc2)Cc2cccnc2)ccc2c1COC2=O` (centres unmarked) [Example 11-I, 3-fluoro-4′-(((2-hydroxy-2-(4-methyl-1-oxo-1,3-dihydroisobenzofuran-5-yl)ethyl)(pyridin-3-ylmethyl)amino)methyl)-[1,1′-biphenyl]-4-carbonitrile] the IC50 was 3700 nM. In the case of `CN(Cc1ccc(-c2ccc(C#N)c(F)c2)cc1)Cc1ccc2c(c1)COC2=O` [Example 29, 3-fluoro-4′-((methyl((1-oxo-1,3-dihydroisobenzofuran-5-yl)methyl)amino)methyl)-[1,1′-biphenyl]-4-carbonitrile], the IC50 is reported as 3300 nM. `Cc1cc(-n2[nH]cc(CNC[C@H](O)c3ccc4c(c3C)COC4=O)c2=O)ncc1C#N` [Example 36, (R)-6-(4-(((2-hydroxy-2-(4-methyl-1-oxo-1,3-dihydroisobenzofuran-5-yl)ethyl)amino)methyl)-5-oxo-2,5-dihydro-1H-pyrazol-1-yl)-4-methylnicotinonitrile] gave an IC50 of 390 nM. With `Cc1c([C@@H](O)CNC(C)(C)c2cnn(-c3ccc4oc(=O)n(C)c4c3)c2)ccc2c1COC2=O` [Example 37, (R)-5-(4-(2-((2-hydroxy-2-(4-methyl-1-oxo-1,3-dihydroisobenzofuran-5-yl)ethyl)amino)propan-2-yl)-1H-pyrazol-1-yl)-3-methylbenzo[d]oxazol-2(3H)-one] the IC50 was 930 nM. With `Cc1cc(-n2cc(CCNC(=O)Cc3ccc4c(c3C)COC4=O)cn2)ncc1C#N` [Example 38, N-(2-(1-(5-cyano-4-methylpyridin-2-yl)-1H-pyrazol-4-yl)ethyl)-2-(4-methyl-1-oxo-1,3-dihydroisobenzofuran-5-yl)acetamide] the IC50 was 340 nM. For `Cc1cc(-c2cnc(CNC[C@H](O)c3ccc4c(c3C)COC4=O)nc2)ncc1C#N` [Example 40, (R)-6-(2-(((2-hydroxy-2-(4-methyl-1-oxo-1,3-dihydroisobenzofuran-5-yl)ethyl)amino)methyl)pyrimidin-5-yl)-4-methylnicotinonitrile], the IC50 was 340 nM. In the case of `Cc1cc(-c2nc(CNC[C@H](O)c3ccc4c(c3C)COC4=O)n(C)n2)ncc1C#N` [Example 42, (R)-6-(5-(((2-hydroxy-2-(4-methyl-1-oxo-1,3-dihydroisobenzofuran-5-yl)ethyl)amino)methyl)-1-methyl-1H-1,2,4-triazol-3-yl)-4-methylnicotinonitrile], the IC50 is reported as 855 nM. `Cc1c([C@H](CNCc2cnn(-c3ccc4oc(=O)n(C)c4c3)c2)OC(=O)[C@H](N)C(C)C)ccc2c1COC2=O` [Example 44, (R)-1-(4-methyl-1-oxo-1,3-dihydroisobenzofuran-5-yl)-2-(((1-(3-methyl-2-oxo-2,3-dihydrobenzo[d]oxazol-5-yl)-1H-pyrazol-4-yl)methyl)amino)ethyl D-valinate] gave an IC50 of 140 nM. `Cc1cn(-c2ccc(CNC[C@H](O)c3ccc4c(c3C)COC4=O)nn2)cn1` [Example 53, (R)-5-(1-hydroxy-2-(((6-(4-methyl-1H-imidazol-1-yl)pyridazin-3-yl)methyl)amino)ethyl)-4-methylisobenzofuran-1(3H)-one] showed an IC50 of 320 nM. With `Cc1cc(-n2nc(C)c(CNC[C@H](O)c3ccc4c(c3C)COC4=O)n2)ncc1C#N` [Example 58, (R)-6-(4-(((2-hydroxy-2-(4-methyl-1-oxo-1,3-dihydroisobenzofuran-5-yl)ethyl)amino)methyl)-5-methyl-2H-1,2,3-triazol-2-yl)-4-methylnicotinonitrile] the IC50 was 300 nM. `Cc1cc(-n2cc(CNC[C@H](NS(=O)(=O)C3CC3)c3ccc4c(c3C)COC4=O)cn2)ncc1C#N` [Example 62, (R)-N-(2-(((1-(5-cyano-4-methylpyridin-2-yl)-1H-pyrazol-4-yl)methyl)amino)-1-(4-methyl-1-oxo-1,3-dihydroisobenzofuran-5-yl)ethyl)cyclopropanesulfon-amide] showed an IC50 of 390 nM. `Cc1cc(-n2cc(CNC[C@H](NC(=O)CO)c3ccc4c(c3C)COC4=O)cn2)ncc1C#N` [Example 63, (R)-N-(2-(((1-(5-cyano-4-methylpyridin-2-yl)-1H-pyrazol-4-yl)methyl)amino)-1-(4-methyl-1-oxo-1,3-dihydroisobenzofuran-5-yl)ethyl)-2-hydroxyacetamide] was tested, and the IC50 was 130 nM. `CN[C@@H](CNCc1cnn(-c2cc(C)c(C#N)cn2)c1)c1ccc2c(c1C)COC2=O` [Example 64, (R)-4-methyl-6-(4-(((2-(4-methyl-1-oxo-1,3-diydroisobenzofuran-5-yl)-2-(methylamino)ethyl)amino)methyl)-1H-pyrazol-1-yl)nicotinonitrile] showed an IC50 of 430 nM. In the case of `Cc1cc(-n2cc(CNC[C@@H](c3ccc4c(c3C)COC4=O)N(C)S(C)(=O)=O)cn2)ncc1C#N` [Example 65, (R)-N-(2-(((1-(5-cyano-4-methylpyridin-2-yl)-1H-pyrazol-4-yl)methyl)amino)-1-(4-methyl-1-oxo-1,3-dihydroisobenzofuran-5-yl)ethyl)-N-methylmethanesulfonamide], the IC50 is reported as 38 nM. In the case of `Cc1cc(-n2cc(CNC[C@@H](c3ccc4c(c3C)COC4=O)N3CCCS3(=O)=O)cn2)ncc1C#N` [Example 66, (R)-6-(4-(((2-(1,1-dioxidoisothiazolidin-2-yl)-2-(4-methyl-1-oxo-1,3-dihydroisobenzofuran-5-yl)ethyl)amino)methyl)-1H-pyrazol-1-yl)-4-methylnicotinonitrile], the IC50 is reported as 260 nM. For `Cc1cn(-c2cc(C)c(CNC[C@H](O)c3ccc4c(c3C)COC4=O)cn2)cn1` [Example 76, (R)-5-(1-hydroxy-2-(((4-methyl-6-(4-methyl-1H-imidazol-1-yl)pyridin-3-yl)methyl)amino)ethyl)-4-methylisobenzofuran-1(3H)-one], the IC50 was 81 nM. Work on `Cc1cn(-c2ccc(CNC[C@H](O)c3ccc4c(c3C)COC4=O)c(C)n2)cn1` [Example 77] yielded an IC50 of 190 nM. Work on `Cc1cc(C#N)cnc1-n1cc(CNC[C@H](O)c2ccc3c(c2C)COC3=O)cn1` [Example 78, (R)-6-(4-(((2-hydroxy-2-(4-methyl-1-oxo-1,3-dihydroisobenzofuran-5-yl)ethyl)amino)methyl)-1H-pyrazol-1-yl)-5-methylnicotinonitrile] yielded an IC50 of 440 nM. Compound `Cc1c([C@@H](O)CNCc2cnn(-c3ccc4nncn4n3)c2)ccc2c1COC2=O` [Example 79, (R)-5-(2-(((1-([1,2,4]triazolo[4,3-b]pyridazin-6-yl)-1H-pyrazol-4-yl)methyl)amino)-1-hydroxyethyl)-4-methylisobenzofuran-1(3H)-one] has an IC50 of 530 nM. `COc1cc(-n2cc(CNC[C@H](O)c3ccc4c(c3C)COC4=O)cn2)ccn1` [Example 80, (R)-5-(1-hydroxy-2-(((1-(2-methoxypyridin-4-yl)-1H-pyrazol-4-yl)methyl)amino)ethyl)-4-methylisobenzofuran-1(3H)-one] showed an IC50 of 530 nM. For `Cc1cc(-n2cc(CN(CC3CCOC3)C[C@H](O)c3ccc4c(c3C)COC4=O)cn2)ncc1C#N` (stereo partly drawn) [Example 85, 6-(4-((((R)-2-hydroxy-2-(4-methyl-1-oxo-1,3-dihydroisobenzofuran-5-yl)ethyl)((tetrahydrofuran-3-yl)methyl)amino)methyl)-1H-pyrazol-1-yl)-4-methylnicotinonitrile], the IC50 was 230 nM. Compound `Cc1cc(-c2nc(CNC[C@H](O)c3ccc4c(c3C)COC4=O)cn2C)ncc1C#N` [Example 86, (R)-6-(4-(((2-hydroxy-2-(4-methyl-1-oxo-1,3-dihydroisobenzofuran-5-yl)ethyl)amino)methyl)-1-methyl-1H-imidazol-2-yl)-4-methylnicotinonitrile] has an IC50 of 430 nM. With `COc1cc(-n2cnc(C)c2)ncc1CNC[C@H](O)c1ccc2c(c1C)COC2=O` [Example 89, (R)-5-(1-hydroxy-2-(((4-methoxy-6-(4-methyl-1H-imidazol-1-yl)pyridin-3-yl)methyl)amino)ethyl)-4-methylisobenzofuran-1(3H)-one] the IC50 was 92 nM.
